Legend:
[1] = system: SMN2; experiment: Gene panel canonical junction qPCR assay, SMN2 CJ mRNA (Table 7); assay type: cell-based; conditions: Homo sapiens, read-out: SMN2 CJ mRNA decrease IC50
Method in brief: (§1)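 Canonical-junction transcript levels are quantified by RT-qPCR after compound treatment of K562 or A673 cells. Primers or a CY5 probe overlap the exon junction; signals are normalized to GAPDH, GUSB or PPIA and to DMSO, then scaled to a set ΔCt assay window and fitted for IC50.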

[2] = system: MYB; experiment: Gene panel canonical junction qPCR assay, MYB CJ mRNA (Table 7); assay type: cell-based; conditions: Homo sapiens, read-out: MYB CJ mRNA decrease IC50
Method in brief: as §1

[3] = system: MYB; experiment: RT-qPCR splicing assay, MYB AJ/CJ mRNA; assay type: cell-based; conditions: Homo sapiens, A673 or K562 cells, 24 hours; for IC50: decrease in canonical junction mRNA; for AC50: increase in alternative junction mRNA
Method in brief: (§2)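 Following 24 h compound exposure at 37 °C (11 points, 3-fold, highest 10 uM; DMSO ≤0.25%), A673 or K562 lysates underwent RT-qPCR for exon-inclusion (AJ) and canonical (CJ) junctions of HTT and MYB. Relative quantification used housekeeping-gene ΔCt and DMSO-normalized ΔΔCt, converted to percentage response.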

[4] = system: HTT; experiment: Gene panel canonical junction qPCR assay, HTT CJ mRNA (Table 7); assay type: cell-based, human; conditions: Homo sapiens, read-out: HTT CJ mRNA decrease IC50
Method in brief: as §1

[5] = system: HTT; experiment: RT-qPCR splicing assay, HTT AJ/CJ mRNA; assay type: cell-based, human; conditions: Homo sapiens, 24 h, A673 or K562 cells; for IC50: decrease in canonical junction mRNA; for AC50: increase in alternative junction mRNA
Method in brief: as §2

[6] = system: Target C; experiment: Gene panel canonical junction qPCR assay, Target C CJ mRNA (Table 7); assay type: cell-based, human; conditions: Homo sapiens, read-out: Target C CJ mRNA decrease IC50
Method in brief: as §1

SMILES | IC50 [1] | IC50 [2] | IC50 [3] | AC50 [3] | IC50 [4] | IC50 [5] | AC50 [5] | IC50 [6]
CN(c1ncc2c(n1)OCc1cc(-c3cn[nH]c3)ccc1-2)[C@@H]1C[C@H]2CC[C@@H](C1)N2 [Compound 294] | 100 to 1000 nM | 100 to 1000 nM | 100 to 1000 nM | 1000 to 10000 nM | < 100 nM | < 100 nM | 100 to 1000 nM | 100 to 1000 nM
Fc1cc2c(cc1-c1cn[nH]c1)COc1nc(O[C@@H]3C[C@H]4CC[C@@H](C3)N4)ccc1-2 [Compound 260] | < 100 nM | 100 to 1000 nM | 100 to 1000 nM | < 100 nM | < 100 nM | < 100 nM | < 100 nM | 100 to 1000 nM
c1cc2c(cc1-c1cn[nH]c1)COc1nc(N3CCC4(CCN4)C3)ccc1-2 (stereo not shown) [Compound 217, 6-[8-(1H-pyrazol-4-yl)-6H-isochromeno[3,4-b]pyridin-3-yl]-1,6-diazaspiro[3.4]octane] | 100 to 1000 nM | 1000 to 10000 nM | 1000 to 10000 nM | > 10000 nM | 100 to 1000 nM | 100 to 1000 nM | 1000 to 10000 nM | 1000 to 10000 nM
[2H]C([2H])([2H])N(c1ccc2c(n1)OCc1cc(-n3cccn3)ccc1-2)C1CC(C)(C)NC(C)(C)C1 [Compound 199] | 1000 to 10000 nM | > 10000 nM | > 10000 nM | > 10000 nM | 1000 to 10000 nM | 1000 to 10000 nM | 1000 to 10000 nM | > 10000 nM
[2H]C([2H])([2H])N(c1ccc2c(n1)OCc1cc(-n3cccn3)ccc1-2)[C@@H]1C[C@H]2CC[C@@H](C1)N2 [Compound 201] | < 100 nM | 100 to 1000 nM | 100 to 1000 nM | 1000 to 10000 nM | 100 to 1000 nM | 100 to 1000 nM | 100 to 1000 nM | 100 to 1000 nM
Cc1cc(-c2ccc3c(c2)COc2nc(N4CC[C@H](NC(C)(C)C)C4)ccc2-3)cnn1 (single isomer, unassigned) [Compound 273, N-tert-butyl-1-[8-(6-methylpyridazin-4-yl)-6H-isochromeno[3,4-b]379yrrolid-3-yl]379yrrolidine-3-amine] | > 10000 nM | > 10000 nM | > 10000 nM | > 10000 nM | > 10000 nM | > 10000 nM | > 10000 nM | > 10000 nM
c1cnn(-c2ccc3c(c2)OCCc2nc(N[C@@H]4C[C@H]5CC[C@@H](C4)N5)ccc2-3)c1 [Compound 136] | > 10000 nM | > 10000 nM | > 10000 nM | > 10000 nM | > 10000 nM | > 10000 nM | > 10000 nM | > 10000 nM
CC1(NC2CCN(c3ccc4c(n3)OCc3cc(-c5cn[nH]c5)ccc3-4)C2)CC1 (stereo not shown) [Compound 253, N-(1-methylcyclopropyl)-1-[8-(1H-pyrazol-4-yl)-6H-isochromeno[3,4-b]pyridin-3-yl]pyrrolidin-3-amine] | < 100 nM | 100 to 1000 nM | 100 to 1000 nM | 100 to 1000 nM | 100 to 1000 nM | 100 to 1000 nM | < 100 nM | 100 to 1000 nM
c1cnn(-c2ccc3c(c2)COc2nc(N[C@@H]4C[C@H]5CC[C@@H](C4)N5)ccc2-3)c1 [Compound 179] | 100 to 1000 nM | 100 to 1000 nM | 100 to 1000 nM | 100 to 1000 nM | 100 to 1000 nM | 100 to 1000 nM | 100 to 1000 nM | 100 to 1000 nM
CC1(C)CC(Oc2ccc3c(n2)OCc2cc(-n4cccn4)ccc2-3)CC(C)(C)N1 [Compound 171] | 100 to 1000 nM | 1000 to 10000 nM | 1000 to 10000 nM | 1000 to 10000 nM | 1000 to 10000 nM | 1000 to 10000 nM | 1000 to 10000 nM | 1000 to 10000 nM
COc1cc(-c2ccc3c(c2)COc2nc(N4CCNCC4)ccc2-3)cnn1 [Compound 282, 3-methoxy-5-[3-(piperazin-1-yl)-6H-isochromeno[3,4-b]pyridin-8-yl] pyridazine] | 100 to 1000 nM | 100 to 1000 nM | 100 to 1000 nM | 100 to 1000 nM | 100 to 1000 nM | 100 to 1000 nM | 100 to 1000 nM | 100 to 1000 nM

From patent US20240400584A1, “COMPOUNDS AND METHODS FOR MODULATING SPLICING” (REMIX THERAPEUTICS INC., priority 2021, published 2024)
